Reference: article PMC7118115, “Tumor-penetrating peptide for systemic targeting of Tenascin-C” (Scientific Reports, 2020)
“Also recorded” adds a separate entry of the source. Ends that are not written are not given here.

Key:
[1] = biological target: recombinant human Tenascin-C FnIII C domain (TNC-C), hexahistidine-tagged; experiment: phage binding to immobilized recombinant protein (cell-free); conditions: read off a plot
[2] = biological target: recombinant b1b2 domain of neuropilin-1 (NRP-1); experiment: as above; conditions: read off a plot
fibronectin EDB-domain = experiment: Cell-free phage binding to fibronectin EDB; conditions: T7 phage-displayed PL3; in words
Norm. brain = experiment: In vivo play-off phage auditioning, normal brain; design: species or system athymic nude mice; conditions: phage-displayed peptide; equimolar mix, i.v. 1 × 10^10 pfu/mouse, 2 h circulation, perfusion; Ion-Torrent sequencing; mean, N = 3 mice
Experimental: (§1) In vivo play-off was used for internally controlled and competitive systemic phage homing studies in mice bearing tumor xenografts. Phages displaying the candidate TNC-C binding peptides and control peptides were individually amplified and purified by precipitation with PEG-8000 (Sigma-Aldrich, St. Louis, MO, USA), followed by […] gradient ultracentrifugation and dialysis. The phages were pooled at equimolar representation (Table 1 for details) and injected iv at 1 × 10^10 pfu (in 200 µl PBS) in tumor-bearing mice, circulated for 2 h, followed by anesthesia and intracardial perfusion with DMEM. The tumors and organs were collected in lysogeny broth (LB) medium containing 1% NP40, and the tissues were homogenized using a hand-held homogenizer. Phages in the tissue lysate were amplified in E.coli, purified by precipitation with PEG-8000, and DNA was extracted using a DNA extraction kit (High Pure PCR Template Preparation Kit; Roche, Basel, Switzerland). Next-generation sequencing of phage genomic DNA with Ion Torrent system (Thermo Fisher Scientific, Waltham, MA, USA) was used to evaluate the representation of each peptide-phage in the input mixture, in tumors and control organs. The FASTQ data from Ion Torrent were processed using a custom python script that identified the barcodes, constant flanking residues, and extracted the reads of the correct length.

[3] = test system: recombinant b1b2 domain of NRP-1; experiment: Cell-free phage binding to NRP-1; conditions: T7 phage-displayed peptide
Experimental: (§2) The eluted phages were titered and amplified for a next round of selection. After 5 rounds of selection, peptide-encoding DNA from a set of 48 phage clones was subjected to Sanger sequencing of peptide-encoding phage DNA[18],[22]. For cell-free binding studies with individual phage clones were incubated with Ni-NTA magnetic beads coated with hexahistidine-tagged TNC-C as above. RPARPAR phage binding to NRP-1-coated beads was used as a positive control. Phage clones displaying heptaglycine peptide (GGGGGGG, G7), or insertless phage clones were used as negative controls. […]
collected by centrifugation, resuspended in ice-cold IMAC buffer (25mM Tris-HCl, 400mM NaCl, 25mM imidazole pH 8, containing EDTA-free protease inhibitor cocktail and DNase I) and lysed by sonification (Bandelin Sonopuls HD 2070, Germany). […] TNC-C concentration was determined by bicinchoninic acid assay (Thermo Scientific #23227) , and the purity of the proteins was assessed by SDS -PAGE. […]
Single-chain antibodies: The cDNA sequences encoding TNC-C-G11-scFV were retrieved from US patent application EP2157102 A1, and synthetic DNA fragments were cloned in the pET28a+ expression plasmid. […] The purified antibodies were analyzed by SDS-PAGE. […]

WT-GBM = experiment: In vivo play-off phage auditioning, WT-GBM tumor; design: species or system murine WT-GBM glioblastoma in athymic nude mice; conditions: phage-displayed peptide; equimolar mix, i.v. 1 × 10^10 pfu/mouse, 2 h circulation, perfusion; Ion-Torrent sequencing; mean, N = 3 mice
Experimental: (§3) Athymic nude mice (Hsd/Athymic Fox1 nu Harlan) were purchased from Envigo (Netherlands) and maintained under standard housing conditions of the Animal Facility of the Institute of Biomedicine and Translational Medicine, University of Tartu (Tartu, Estonia). For orthotropic GBM tumor models, we used NCH421K, P13, and P3 stem cell-like, WT-GBM cells. The individual GBM cells around 2–3 × 10^5 in 3 μL PBS were intracranially implanted into mice brain 2 mm right and 1 mm anterior to the bregma. U87-MG and PC3 subcutaneous models were induced by injecting 2–9 × 10^6 cells in 100 µl PBS subcutaneously into the right flank of 11–15 week old male and female nude mice. All animal experiments were performed in accordance with the procedures approved by the Committee of Animal Experimentation of Estonian Ministry of Agriculture, permits #42 and #48.
as §1

recombinant TNC-C = experiment: Cell-free phage binding to TNC-C; design: species or system human
Experimental: For biopanning on recombinant human TNC-C, we used NNK-encoded CX7C and X7 peptide T7 phage libraries with diversity ~5 × 10^8. Throughout our screens, the selected phages were amplified following plate amplification protocol. The 1st and 4th rounds of biopanning were performed on TNC-C immobilized on Costar 96-Well ELISA plate (#3590, Corning Life Sciences, Tewksbury, MA, USA). Briefly, the multiwell plates were coated with 20 µg/ml recombinant TNC-C in 100 µl of PBS overnight at 4 °C, followed by blocking with 1% bovine serum albumin (BSA) in PBS overnight at 4 °C. The phage library (5 × 10^8 pfu in 100 µl of PBS-BSA) was incubated overnight at 4 °C, followed by 6 washes with PBS containing 1% BSA and 0.1% Tween-20 (washing buffer) to remove background phages, and by phage rescue and amplification in E. coli strain BLT5403 (Novagen, EMD Biosciences, MA, USA)[8]. The subsequent rounds of selection were performed on Ni-NTA Magnetic Agarose Beads (QIAGEN, Hilden, Germany) coated with His-6X tagged TNC-C (30 µg/10 µl beads) at room temperature for 1 h in 400 µl of PBS. The TNC-C beads were washed 3 times with washing buffer, followed by incubation with phages in (5 × 10^8 pfu in 100 µl in washing buffer) at room temperature for 1 h. The background phages were removed by rinsing 6 times with washing buffer, and the bound phages were eluted with 1 ml of PBS containing 500 mM Imidazole and 0.1% NP40.
as §2
Fig. S13. NRP -1-dependent internalization of PL3 -functionalized AgNPs […]
Supplementary Materials and Methods
Cloning, expression , and purification of TNC-C
Vector Construction. A pF1K (Promega, # FXC00319) derivative plasmid containing full -length cDNA of TNC was used for PCR amplification of cDNA region of TNC-C with Phusion Hot Start II High -Fidelity DNA Polymerase (Thermo Fisher Scientific Inc # F -537L; primer pairs:
5′- CTCCTCT […] -3′ and 5′ -
CAGACA CTCGAG TTATCA TGTAACAATCTC -3′ for domain TNC -C. NdeI and XhoI restriction sites underlined ). The fragments were cloned in the pET28a+ plasmid for TNC -C expression as a n N-terminally His -tagged protein .
Expression and purification of TNC-C. The pET28a+ TNC-C plasmid was used for transformation of E. coli BL21 Rosetta 2 (DE3) pLysS cells (Novagen, #70956). The protein expression was induced by addition of isopropyl β-D-1-thiogalactopyranoside (IPTG) (Sigma, # I6758) to 0.5 mM final concentration and the bacteria were culture d at 18 °C for 16h . Cells were […]
collected by centrifugation, resuspended in ice-cold IMAC buffer (25mM Tris-HCl, 400mM NaCl, 25mM imidazole pH 8, containing EDTA-free protease inhibitor cocktail and DNase I) and lysed by sonification (Bandelin Sonopuls HD 2070, Germany). The cleared bacterial lysate was purified using HiTrap IMAC HP column s (GE Healthcare # 17 -0920-05) on ÄKTA purification system (GE Healthcare ), and the eluate was dialyzed against PBS using 3.5 kDa cut - off 3mL Slide-A-Lyzer Dialysis Cassettes (Thermo Scientific #66330). TNC-C concentration was determined by bicinchoninic acid assay (Thermo Scientific #23227) , and the purity of the proteins was assessed by SDS -PAGE. Mass spectrometry and de novo peptide sequencing were used to confirm the size and sequence of the purified proteins . His-tagged NRP-1 b1b2 domain was expressed and purified as described (Teesalu et al., 2009) .
Single-chain antibodies: The cDNA sequences encoding TNC-C-G11-scFV were retrieved from […]

P3 SCL = experiment: In vivo play-off phage auditioning, P3 SCL tumor; design: species or system P3 stem cell-like glioblastoma in athymic nude mice; conditions: phage-displayed peptide; equimolar mix, i.v. 1 × 10^10 pfu/mouse, 2 h circulation, perfusion; Ion-Torrent sequencing; mean, N = 3 mice
Experimental: as §3, §1

U87-MG = experiment: In vivo play-off phage auditioning, U87-MG tumor; design: species or system human glioblastoma in athymic nude mice; conditions: phage-displayed peptide; equimolar mix, i.v. 1 × 10^10 pfu/mouse, 2 h circulation, perfusion; Ion-Torrent sequencing; mean, N = 3 mice
Experimental: as §3, §1

[4] = test system: tumor tissue across models (4 glioma models and 1 prostate cancer model); experiment: In vivo play-off phage auditioning, across tumor models; design: species or system nude mice; conditions: T7 phage play-off, i.v., 2 h
Experimental: as §1

P13 = experiment: In vivo play-off phage auditioning, P13 tumor; design: species or system P13 glioblastoma in athymic nude mice; conditions: phage-displayed peptide; equimolar mix, i.v. 1 × 10^10 pfu/mouse, 2 h circulation, perfusion; Ion-Torrent sequencing; mean, N = 3 mice
Experimental: as §3, §1

PC3 = experiment: In vivo play-off phage auditioning, PC3 tumor; design: species or system prostate carcinoma in athymic nude mice; conditions: phage-displayed peptide; equimolar mix, i.v. 1 × 10^10 pfu/mouse, 2 h circulation, perfusion; Ion-Torrent sequencing; mean, N = 3 mice
Experimental: as §3, §1

[5] = biological target: recombinant b1b2 domain of neuropilin-1 (NRP-1); experiment: fluorescence polarisation; fluorescence anisotropy saturation binding; 0.66 uM FAM-Cys-PL3 with 0-112 uM NRP1 or 0-275 uM TNC-C; DPBS with 0.1% Pluronic F-127; 24 h at 25 C; non-specific binding with 500 uM Biotin-Ahx-PL3; global fit, single binding site with ligand depletion
[6] = biological target: recombinant human Tenascin-C FnIII C domain (TNC-C), hexahistidine-tagged (human); experiment: as above
[7] = biological target: recombinant b1b2 domain of neuropilin-1 (NRP-1); experiment: phage binding assay; individual T7 phage clones incubated with Ni-NTA magnetic beads coated with hexahistidine-tagged TNC-C (30 ug/10 ul beads) or NRP-1-coated beads, room temperature 1 h, washing buffer PBS with 1% BSA and 0.1% Tween-20, elution with 500 mM imidazole and 0.1% NP40, phage titered; binding as fold heptaglycine (G7) control phage or percent of parental PL3 phage

## T7 phage displaying PL3 peptide (AGRGRLVR) L6A
[1]
  percent of parent: 34%
[2]
  percent of parent: 140%

## AGRGRLVR (left off: T7 phage particle (peptide displayed on it), end not stated, kept) [PL3]
Fibronectin EDB-domain
  phage binding to fibronectin EDB-domain: did not bind; also recorded: no binding
Norm. brain
  Representation of phage in control brain tissue (Norm. brain): 0.4 fold G7 control phage
[3]; NRP-1 b1b2-coated beads
  phage binding to NRP-1 (in words): binds
[3]; fold over G7 control phage
  PL3 phage binding to b1b2 domain of NRP-1 vs heptaglycine control phage: ~ 200 fold
WT-GBM
  Representation of phage in tumors, WT-GBM: 24.1 fold G7 control phage
Recombinant TNC-C; T7 phage-displayed peptide, alanine scan expressed as percent binding of parental PL3 phage, 3 independent experiments
  phage binding to recombinant TNC-C (in words): binds; also recorded: robust interaction with TNC-C
P3 SCL
  Representation of phage in tumors, P3 SCL: 2.1 fold G7 control phage
U87-MG
  Representation of phage in tumors, U87-MG: 2.1 fold G7 control phage
[4]
  representation in tumor tissue across models: overrepresented in tumor tissue across models tested
P13
  Representation of phage in tumors, P13: 4.7 fold G7 control phage
PC3
  Representation of phage in tumors, PC3: 3.9 fold G7 control phage

## T7 phage displaying PL3 peptide (AGRGRLVR) G4A
[1]
  percent of parent: 90%
[2]
  percent of parent: 96%

## T7 phage displaying PL3 peptide (AGRGRLVR) R8A
[1]
  percent of parent: 26%
[2]
  percent of parent: 19%

## T7 phage displaying PL3 peptide (AGRGRLVR) R5A
[1]
  percent of parent: 49%
[2]
  percent of parent: 190%

## T7 phage displaying PL3 peptide (AGRGRLVR) V7A
[1]
  percent of parent: 76%
[2]
  percent of parent: 180%

## T7 phage displaying PL3 peptide (AGRGRLVR) G2A
[1]
  percent of parent: 100%
[2]
  percent of parent: 92%

## AGRGRLVRAKLAAALE [Clone-5]
Norm. brain
  Representation of phage in control brain tissue (Norm. brain): 0.0 fold G7 control phage
WT-GBM
  Representation of phage in tumors, WT-GBM: 23.9 fold G7 control phage
Recombinant TNC-C; individual T7 phage clones, Ni-NTA magnetic beads coated with hexahistidine-tagged TNC-C
  TNC-C binding (fold G7 control phage): 5785 fold G7 control phage
P3 SCL
  Representation of phage in tumors, P3 SCL: 0.4 fold G7 control phage
U87-MG
  Representation of phage in tumors, U87-MG: 0.2 fold G7 control phage
P13
  Representation of phage in tumors, P13: 0.1 fold G7 control phage
PC3
  Representation of phage in tumors, PC3: 0.3 fold G7 control phage

## T7 phage displaying PL3 peptide (AGRGRLVR) R3A
[1]
  percent of parent: 10%

B1: FAM-Cys-PL3 fluorescent peptide (peptide)
peptide: CAGRGRLVR
modifications: not fully specified (N-terminus); also: 6-aminohexanoic acid spacer, position not given here
[5]
  Kd: 1.1 µM
[6]
  Kd: 51 µM

## AGRGRLVR [T7 phage displaying PL3 peptide (AGRGRLVR)]
[7]
  fold binding over heptaglycine control phage: 200 fold
